This is an account of results in US12622934B2, “Pharmaceutical composition for preventing or treating atopic disease containing Faecalibacterium prausnitzii strain” (ENTEROBIOME INC., priority 2020, dated 2026).

For assay [1], the system named is Faecalibacterium prausnitzii A2-165. In words: MIC by CLSI broth microdilution, type strain. The assay is classed as cell-based. The arrangement: MIC: unit not given beside the values. Conditions: for MIC breakpoint class: test strain A2-165, breakpoints per antibiotic in c1-c3.
The test system of assay [2] is Faecalibacterium prausnitzii EB-FPDK11. The assay is described as follows: MIC by CLSI broth microdilution, isolated strain. It is filed as cell-based. The arrangement: MIC: unit not given beside the values. Conditions: for resistance or sensitivity of the EB-FPDK11 strain to the antibiotic: Table 5; for MIC breakpoint class: test strain EB-FPDK11, breakpoints per antibiotic in c1-c3.

Assay [3] deals with Bacteroides thetiotaomicron ATCC 29741. The assay is described as follows: MIC by CLSI broth microdilution, QC strain. The assay is classed as cell-based. Conditions: ATCC29741. (In general: Dilution methods test growth across graded concentrations, often in twofold steps.)
A further assay relates to Th2/Th1 cytokines. The assay is described as follows: Ratio of Th2/Th1 cytokines in serum. It is filed as in vivo, mice. On the procedure: (§1) The Faecalibacterium prausnitzii A2-165 strain and Faecalibacterium prausnitzii EB-FPDK11 live bacteria used in this experiment were prepared at a concentration of 1×10^8 CFU/150 μl PBS (25% glycerol, 0.05% cysteine/PBS).
To observe atopic dermatitis lesions, 6-week-old NC/Nga mice (weighed about 21 to 25 g, SLC, Inc., Japan) were purchased from Daehan Biolink Co., Ltd. (Chungbuk, Korea). Animal tests were carried out in accordance with the Animal use and Care Protocol of the Institutional Animal Care and Use Committee (IACUC). The animals were acclimated for one week, and then raised for 9 weeks at a constant temperature of 22° C. and a relative humidity of 50 to 60% with a 12-hr light/12-hr dark cycle. […]
(§2) At the end of the experiment, the mice were anesthetized with CO2, and blood was collected by cardiac puncture. […] The concentrations of IL-4, IL-12, IFN-γ and IL-6 cytokines were measured using an ELISA kit (Invitrogen, CA, USA), and the results of the measurement are shown in FIGS. 16 and 17.
From an immunological point of view, allergenic atopic dermatitis is a disease caused by an excessive imbalance between Th1 and Th2 immune responses. Thus, the cytokine concentrations measured as described above were expressed as the ratio of Th2/Th1 cytokines, and the results are shown in FIGS. 18 and 19.

A further assay has as its system IL-6. The assay is described as follows: Serum cytokine concentration (ELISA), IL-6. It is filed as in vivo, mice. Conditions: mouse blood, compared to atopic dermatitis-induced group (DNCB). On the procedure:
as §1
(§3) To observe atopic dermatitis lesions, 6-week-old NC/Nga mice (weighed about 21 to 25 g, SLC, Inc., Japan) were purchased from Daehan Biolink Co., Ltd. (Chungbuk, Korea). Animal tests were carried out in accordance with the Animal use and Care Protocol of the Institutional Animal Care and Use Committee (IACUC). The animals were acclimated for one week, and then raised for 9 weeks at a constant temperature of 22° C. and a relative humidity of 50 to 60% with a 12-hr light/12-hr dark cycle.
(§4) The backs of 6-week-old NC/Nga mice were shaved clean, and then left to stand for 24 hours so that fine wounds of the skin were healed. […]
After induction of atopic dermatitis, the concentrations of cytokines related to Th1 and Th2 were measured to examine the immune response resulting from administration of the Faecalibacterium prausnitzii EB-FPDK11 strain of the present invention. […]
as §2
In general terms: In an ELISA, binding on a coated surface is turned into a signal by an enzyme label.

Assay [4] concerns NC/Nga mice. The assay is described as follows: Spleen weight. It is filed as in vivo. Conditions: after 6 weeks oral treatment, compared to atopic dermatitis-induced group (DNCB). On the procedure:
as §1, §3, §4
Thus, the weight of the spleen was measured to observe the effect of the composition for preventing atopic dermatitis on the immune organs of NC/Nga mice with atopic dermatitis induced by DNCB. […] The collected spleen tissue was washed with physiological saline and then dried, and the weights thereof were measured using a microbalance and the sizes thereof were visually observed.

The test system of assay [5] is NC/Nga mice. The assay is described as follows: Ear edema caused by atopic dermatitis (thickness gauge). The assay is classed as in vivo. Conditions: at 6 weeks; normal group 0.55 mm, DNCB group 1.50 mm. As for the experimental part: as §1, §3
(§5) The backs of 6-week-old NC/Nga mice were shaved clean, and then left to stand for 24 hours so that fine wounds of the skin were healed. 1% 2,4-dinitrochlorobenzene (DNCB) solution (Sigma-Aldrich Korea) was applied to the back of each mouse twice a week for 3 weeks to induce an immune response, and then 0.5% DNCB solution was applied twice a week to induce contact dermatitis. […]
After completion of the experiment, the mice were sacrificed by anesthetizing with CO2, and then the degree of edema of both ears was measured by the velocity transformation technique using a thickness gauge (Digimatic thickness gauge, 547-301, Mitutoyo, Japan).

In assay [6] the test system is NC/Nga mice. In words: Scratching frequency. The assay is classed as in vivo. Conditions: scratching for 10 minutes, day before end, compared to atopic dermatitis-induced group. On the procedure: as §1, §3, §5
The day before the end of the experiment, the frequency of scratching the affected area due to itching was measured. For measurement of the frequency of scratching, each mouse was acclimated for 10 minutes, and then the frequency of scratching for 10 minutes was measured using a counter.

The next assay deals with IgE. The assay is described as follows: Serum IgE concentration (ELISA). The assay is classed as in vivo, mice. Conditions: end of experiment, compared to DNCB group (1545.08 ng/ml). As for the experimental part:
as §1, §3, §5
At the end of the experiment, each of the mice was anesthetized with CO2 and blood was collected by cardiac puncture. The collected blood was centrifuged at 10,000 rpm for 5 minutes to separate the serum, and the serum IgE concentration was measured. […]

≈ marks a conversion by molar mass, not a printed value. Where only a bound is given, the exact number is not on record here.

`Cc1ncc([N+](=O)[O-])n1CCO` [MTZ, metronidazole]: the MIC breakpoint class result in assay [1] is “(S)”. In [2], the “resistance or sensitivity of the EB-FPDK11 strain to the antibiotic” value (shortened to “resistance or sensitivity”) is “sensitivity” and the MIC breakpoint class entry was “(S)”.

Turning to `COc1c(N2C[C@@H]3CCCN[C@@H]3C2)c(F)cc2c(=O)c(C(=O)O)cn(C3CC3)c12` [MXF, moxifloxacin], the MIC breakpoint class result in assay [1] and in assay [2] was “(R)” in each case.

The term MIC denotes the lowest concentration found to suppress growth. In the case of `C[C@@H](O)[C@H]1C(=O)N2C(C(=O)O)=C(S[C@@H]3CN[C@H](C(=O)N(C)C)C3)[C@H](C)[C@H]12` [MEM, meropenem], the MIC breakpoint class entry in [1] is reported as “(R)”. For the same compound, in [2], the “resistance or sensitivity” value is “resistance” and the MIC breakpoint class result is listed as “(R)”. This compound returned an MIC in [3] of 0.5 µg/mL (≈ 1.3 µM).

For `C[C@@H]1C[C@H]2[C@@H]3CCC4=CC(=O)C=C[C@]4(C)[C@@]3(F)[C@@H](O)C[C@]2(C)[C@@]1(O)C(=O)CO` [dexamethasone], the “decrease in IL-4/IL-12 ratio” value in the assay with Th2/Th1 cytokines (compared to atopic dermatitis-induced group) is given as 23.7%. Besides, in the assay with Th2/Th1 cytokines (compared to atopic dermatitis-induced group (DNCB)), the “decrease in ratio of IL-6/IL-12” value came to 35.8%. In addition, the “decrease in IL-6 concentration” value with IL-6 worked out at 35.5%. Moreover, in the assay on NC/Nga mice [4], the “decrease in spleen weight” value amounted to 23.26%. Moreover, the ear edema in the assay on NC/Nga mice [5] stood at 1.00 mm. Moreover, in the assay with NC/Nga mice [6], the “decrease in frequency of scratching” value is listed as “about 59.4%”. Besides, the “decrease in serum IgE concentration” value in the assay with IgE came out at 40.70%.

With `CCC[C@@H]1C[C@@H](C(=O)N[C@@H]([C@H]2O[C@H](SC)[C@H](O)[C@@H](O)[C@H]2O)[C@H](C)Cl)N(C)C1` [CLI, clindamycin], the MIC breakpoint class result in assay [1] and in assay [2] was “(S)” throughout.

As for `CO/N=C(\C(=O)N[C@@H]1C(=O)N2C(C(=O)O)=CCS[C@H]12)c1csc(N)n1` [CTZ, ceftizoxime], the MIC breakpoint class entry in [1] is reported as “(I)”. For the same compound, in assay [2], the “resistance or sensitivity” value was “resistance” and the MIC breakpoint class entry is recorded as “(R)”.

Consider Piperacillin-tazobactam [PTZ], for which the MIC is given as ≤256/4 in assay [1] (test strain A2-165, broth microdilution) and ≤256/4 in assay [2] (test strain EB-FPDK11, broth microdilution). The MIC breakpoint class entry in assay [1] and in assay [2] was “(R)” each time. Besides, the “resistance or sensitivity” value in assay [2] is listed as “resistance”.

As for `O=C(N[C@H](CO)[C@H](O)c1ccc([N+](=O)[O-])cc1)C(Cl)Cl` [CHL, chloramphenicol], the MIC breakpoint class entry in assay [1] was “(R)”. Moreover, in assay [2], the “resistance or sensitivity” value is recorded as “sensitivity” and the MIC breakpoint class result was “(S)”.
